Results: PMC9329436, “Optimization of the 4-anilinoquin(az)oline scaffold as epidermal growth factor receptor (EGFR) inhibitors for chordoma utilizing a toxicology profiling assay platform” (Scientific Reports, 2022)
Where two headings read alike, the source gives them in different places.

Columns and labels:
Type in all cases: biochemical
[1] = biological target: 320 wild-type protein kinases (Homo sapiens, UniProt P45983); conditions: singlicate
From the text: (§1) Table S4. Profiling of two compounds at two concentrations against 320 wild-type protein kinases; singlicate measurement; Residual activities (% of control).

[2] = biological target: T1, 320 wild-type protein kinases (Homo sapiens, UniProt Q04771); conditions: singlicate
T1 sequence (Q04771 21-509): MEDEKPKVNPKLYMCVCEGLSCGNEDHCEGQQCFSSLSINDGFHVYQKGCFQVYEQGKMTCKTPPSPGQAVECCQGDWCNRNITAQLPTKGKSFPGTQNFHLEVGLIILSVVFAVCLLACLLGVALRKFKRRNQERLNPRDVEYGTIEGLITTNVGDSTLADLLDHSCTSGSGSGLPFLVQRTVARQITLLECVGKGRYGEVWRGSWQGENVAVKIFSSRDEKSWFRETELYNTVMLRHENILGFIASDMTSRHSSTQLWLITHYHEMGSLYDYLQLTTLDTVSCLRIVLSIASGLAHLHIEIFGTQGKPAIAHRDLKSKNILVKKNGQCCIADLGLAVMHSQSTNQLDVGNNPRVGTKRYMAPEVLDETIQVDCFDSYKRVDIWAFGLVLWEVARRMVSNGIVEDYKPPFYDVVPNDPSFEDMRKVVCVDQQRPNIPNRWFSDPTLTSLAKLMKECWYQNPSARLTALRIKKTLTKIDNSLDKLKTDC
From the text: as §1

[3] = biological target: 320 wild-type protein kinases (Homo sapiens, UniProt P19525); conditions: singlicate
Chain of 320 wild-type protein kinases (Homo sapiens, UniProt P19525) (P19525 whole entry): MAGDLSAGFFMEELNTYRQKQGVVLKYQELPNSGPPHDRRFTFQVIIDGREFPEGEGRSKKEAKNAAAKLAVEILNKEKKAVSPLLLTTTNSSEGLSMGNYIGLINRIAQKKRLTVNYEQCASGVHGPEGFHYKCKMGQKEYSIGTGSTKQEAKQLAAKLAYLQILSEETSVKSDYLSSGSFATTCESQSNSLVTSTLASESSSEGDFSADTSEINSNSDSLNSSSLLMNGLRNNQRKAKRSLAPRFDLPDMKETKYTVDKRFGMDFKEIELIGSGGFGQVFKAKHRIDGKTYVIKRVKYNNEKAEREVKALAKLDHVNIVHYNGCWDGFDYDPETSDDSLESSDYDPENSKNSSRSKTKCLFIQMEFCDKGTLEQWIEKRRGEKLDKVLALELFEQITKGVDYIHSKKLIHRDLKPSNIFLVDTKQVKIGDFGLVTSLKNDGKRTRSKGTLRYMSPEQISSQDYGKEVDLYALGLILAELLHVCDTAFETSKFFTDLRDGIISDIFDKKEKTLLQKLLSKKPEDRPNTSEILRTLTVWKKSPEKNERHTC
From the text: as §1

[4] = biological target: 320 wild-type protein kinases (Homo sapiens, UniProt Q07912); conditions: singlicate
From the text: as §1

[5] = biological target: 320 wild-type protein kinases (Homo sapiens, UniProt Q9H4A3); conditions: kinase WNK1, singlicate
Chain of 320 wild-type protein kinases (Homo sapiens, UniProt Q9H4A3) (Q9H4A3 whole entry): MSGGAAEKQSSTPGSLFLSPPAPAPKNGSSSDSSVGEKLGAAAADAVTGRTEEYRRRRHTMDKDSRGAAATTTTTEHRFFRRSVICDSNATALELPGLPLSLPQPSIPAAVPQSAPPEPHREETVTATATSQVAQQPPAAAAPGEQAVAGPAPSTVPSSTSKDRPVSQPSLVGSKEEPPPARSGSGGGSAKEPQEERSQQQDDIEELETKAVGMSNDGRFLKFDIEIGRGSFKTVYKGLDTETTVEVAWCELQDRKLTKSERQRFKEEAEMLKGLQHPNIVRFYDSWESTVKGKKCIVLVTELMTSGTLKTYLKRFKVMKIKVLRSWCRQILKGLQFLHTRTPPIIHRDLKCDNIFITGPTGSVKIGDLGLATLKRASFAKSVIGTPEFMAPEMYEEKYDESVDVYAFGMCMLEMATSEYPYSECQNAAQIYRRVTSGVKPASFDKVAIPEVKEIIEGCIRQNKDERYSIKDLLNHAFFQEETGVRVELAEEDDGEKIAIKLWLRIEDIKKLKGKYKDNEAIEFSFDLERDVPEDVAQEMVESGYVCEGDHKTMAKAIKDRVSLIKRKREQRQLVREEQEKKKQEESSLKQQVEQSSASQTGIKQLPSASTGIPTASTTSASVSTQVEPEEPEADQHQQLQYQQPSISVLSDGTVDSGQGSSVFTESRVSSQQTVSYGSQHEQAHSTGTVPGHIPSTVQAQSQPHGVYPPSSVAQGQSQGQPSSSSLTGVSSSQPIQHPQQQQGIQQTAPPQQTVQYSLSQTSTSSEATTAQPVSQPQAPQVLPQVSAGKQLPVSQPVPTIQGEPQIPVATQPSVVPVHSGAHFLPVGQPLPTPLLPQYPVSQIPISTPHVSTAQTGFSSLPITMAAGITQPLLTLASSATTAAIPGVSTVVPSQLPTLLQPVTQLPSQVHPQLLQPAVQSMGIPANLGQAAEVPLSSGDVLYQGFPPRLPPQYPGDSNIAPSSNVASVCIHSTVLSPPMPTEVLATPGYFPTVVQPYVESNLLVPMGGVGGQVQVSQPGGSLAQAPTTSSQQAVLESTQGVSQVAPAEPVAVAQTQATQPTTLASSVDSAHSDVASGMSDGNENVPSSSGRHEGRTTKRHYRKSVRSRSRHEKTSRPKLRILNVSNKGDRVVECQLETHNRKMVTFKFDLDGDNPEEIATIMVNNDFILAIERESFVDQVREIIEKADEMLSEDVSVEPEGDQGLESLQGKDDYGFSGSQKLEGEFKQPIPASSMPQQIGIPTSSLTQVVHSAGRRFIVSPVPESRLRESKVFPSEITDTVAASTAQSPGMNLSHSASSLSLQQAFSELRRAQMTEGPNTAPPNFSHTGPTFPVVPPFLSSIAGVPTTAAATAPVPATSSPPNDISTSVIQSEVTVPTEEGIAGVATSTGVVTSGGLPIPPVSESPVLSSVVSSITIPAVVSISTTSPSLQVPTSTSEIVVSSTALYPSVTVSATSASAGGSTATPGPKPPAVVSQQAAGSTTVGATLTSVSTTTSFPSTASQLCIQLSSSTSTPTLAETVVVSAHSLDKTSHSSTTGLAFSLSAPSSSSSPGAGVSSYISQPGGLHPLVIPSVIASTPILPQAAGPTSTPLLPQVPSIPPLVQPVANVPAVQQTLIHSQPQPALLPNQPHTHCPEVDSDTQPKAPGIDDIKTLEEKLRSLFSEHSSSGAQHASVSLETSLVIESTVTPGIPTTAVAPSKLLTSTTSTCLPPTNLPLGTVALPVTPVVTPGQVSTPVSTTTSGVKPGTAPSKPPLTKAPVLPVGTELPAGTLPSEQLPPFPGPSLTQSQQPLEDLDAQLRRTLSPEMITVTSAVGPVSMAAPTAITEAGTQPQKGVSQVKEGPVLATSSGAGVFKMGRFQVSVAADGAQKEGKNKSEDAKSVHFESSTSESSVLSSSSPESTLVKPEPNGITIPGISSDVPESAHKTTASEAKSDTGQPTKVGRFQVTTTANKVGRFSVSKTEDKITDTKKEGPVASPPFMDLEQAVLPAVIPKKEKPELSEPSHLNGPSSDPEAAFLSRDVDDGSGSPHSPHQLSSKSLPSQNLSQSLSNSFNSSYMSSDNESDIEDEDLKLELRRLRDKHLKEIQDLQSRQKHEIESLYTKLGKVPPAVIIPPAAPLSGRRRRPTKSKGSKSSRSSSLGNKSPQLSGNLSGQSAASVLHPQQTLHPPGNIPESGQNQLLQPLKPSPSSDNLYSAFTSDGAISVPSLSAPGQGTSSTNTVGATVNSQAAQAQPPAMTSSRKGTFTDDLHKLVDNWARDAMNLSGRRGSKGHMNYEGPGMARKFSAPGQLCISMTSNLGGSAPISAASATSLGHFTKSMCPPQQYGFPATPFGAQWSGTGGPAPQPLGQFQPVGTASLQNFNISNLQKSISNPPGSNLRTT
From the text: as §1

[6] = biological target: 320 wild-type protein kinases (Homo sapiens, UniProt P51957); conditions: singlicate
From the text: as §1

[7] = biological target: 320 wild-type protein kinases (Homo sapiens, UniProt Q15375); conditions: singlicate
Chain of 320 wild-type protein kinases (Homo sapiens, UniProt Q15375) (Q15375 28-998): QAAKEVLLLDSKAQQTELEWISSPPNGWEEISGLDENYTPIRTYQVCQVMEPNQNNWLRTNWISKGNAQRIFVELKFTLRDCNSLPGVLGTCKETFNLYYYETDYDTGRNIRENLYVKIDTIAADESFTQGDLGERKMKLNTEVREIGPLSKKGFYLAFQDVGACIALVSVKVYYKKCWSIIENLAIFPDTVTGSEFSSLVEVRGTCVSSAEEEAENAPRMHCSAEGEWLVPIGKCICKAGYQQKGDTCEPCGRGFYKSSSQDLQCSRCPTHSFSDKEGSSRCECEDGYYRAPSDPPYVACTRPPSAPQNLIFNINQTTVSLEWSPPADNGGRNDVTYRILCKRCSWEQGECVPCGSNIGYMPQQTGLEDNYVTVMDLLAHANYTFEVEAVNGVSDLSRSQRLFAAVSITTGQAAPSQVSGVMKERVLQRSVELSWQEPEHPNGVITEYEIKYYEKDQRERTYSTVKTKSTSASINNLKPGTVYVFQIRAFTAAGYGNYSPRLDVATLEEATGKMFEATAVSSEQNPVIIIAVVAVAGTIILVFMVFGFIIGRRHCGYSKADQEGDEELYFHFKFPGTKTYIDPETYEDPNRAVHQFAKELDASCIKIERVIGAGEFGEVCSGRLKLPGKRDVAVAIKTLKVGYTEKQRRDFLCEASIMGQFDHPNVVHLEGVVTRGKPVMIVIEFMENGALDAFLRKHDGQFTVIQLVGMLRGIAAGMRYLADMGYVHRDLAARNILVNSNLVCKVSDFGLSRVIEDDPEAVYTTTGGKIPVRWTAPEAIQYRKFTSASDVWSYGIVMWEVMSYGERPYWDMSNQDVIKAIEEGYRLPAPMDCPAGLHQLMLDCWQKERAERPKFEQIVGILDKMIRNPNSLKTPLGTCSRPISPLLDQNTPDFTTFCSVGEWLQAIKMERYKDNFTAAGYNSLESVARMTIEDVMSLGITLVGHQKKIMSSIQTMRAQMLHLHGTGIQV
From the text: as §1

[8] = biological target: 320 wild-type protein kinases (Homo sapiens, UniProt P07947); conditions: kinase YES, singlicate
Chain of 320 wild-type protein kinases (Homo sapiens, UniProt P07947) (P07947 whole entry): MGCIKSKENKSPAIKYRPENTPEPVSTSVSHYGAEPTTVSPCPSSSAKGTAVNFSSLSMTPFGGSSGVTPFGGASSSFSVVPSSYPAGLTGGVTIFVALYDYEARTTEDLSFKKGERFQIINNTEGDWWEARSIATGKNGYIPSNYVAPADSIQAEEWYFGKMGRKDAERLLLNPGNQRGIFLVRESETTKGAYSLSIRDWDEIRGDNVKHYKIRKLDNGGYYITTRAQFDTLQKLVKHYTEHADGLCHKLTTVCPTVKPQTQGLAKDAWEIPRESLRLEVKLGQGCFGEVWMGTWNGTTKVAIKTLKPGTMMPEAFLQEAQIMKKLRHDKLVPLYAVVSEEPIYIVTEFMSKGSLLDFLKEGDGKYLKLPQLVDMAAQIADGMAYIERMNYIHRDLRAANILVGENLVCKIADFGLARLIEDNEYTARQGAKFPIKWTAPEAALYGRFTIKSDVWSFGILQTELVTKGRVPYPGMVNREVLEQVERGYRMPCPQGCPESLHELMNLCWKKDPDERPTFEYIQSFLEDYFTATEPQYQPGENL
From the text: as §1

[9] = biological target: T2, 320 wild-type protein kinases (Homo sapiens, UniProt P42679); conditions: MATK, singlicate
T2 sequence (P42679 1-507): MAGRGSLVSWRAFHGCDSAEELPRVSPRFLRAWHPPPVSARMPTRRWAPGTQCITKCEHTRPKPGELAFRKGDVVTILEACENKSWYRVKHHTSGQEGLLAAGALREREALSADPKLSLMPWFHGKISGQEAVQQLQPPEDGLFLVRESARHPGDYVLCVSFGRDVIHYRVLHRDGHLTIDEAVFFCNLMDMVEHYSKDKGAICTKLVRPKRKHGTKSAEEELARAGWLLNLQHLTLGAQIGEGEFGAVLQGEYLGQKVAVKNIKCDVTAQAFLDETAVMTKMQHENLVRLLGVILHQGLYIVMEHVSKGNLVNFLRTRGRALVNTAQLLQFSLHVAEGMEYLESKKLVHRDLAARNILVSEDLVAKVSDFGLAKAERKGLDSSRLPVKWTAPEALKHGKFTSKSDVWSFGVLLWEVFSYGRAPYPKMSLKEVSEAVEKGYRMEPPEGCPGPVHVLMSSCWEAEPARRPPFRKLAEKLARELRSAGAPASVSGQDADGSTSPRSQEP
From the text: as §1

[10] = biological target: T3, 320 wild-type protein kinases (Homo sapiens, UniProt P54760); conditions: singlicate
T3 sequence (P54760 16-987): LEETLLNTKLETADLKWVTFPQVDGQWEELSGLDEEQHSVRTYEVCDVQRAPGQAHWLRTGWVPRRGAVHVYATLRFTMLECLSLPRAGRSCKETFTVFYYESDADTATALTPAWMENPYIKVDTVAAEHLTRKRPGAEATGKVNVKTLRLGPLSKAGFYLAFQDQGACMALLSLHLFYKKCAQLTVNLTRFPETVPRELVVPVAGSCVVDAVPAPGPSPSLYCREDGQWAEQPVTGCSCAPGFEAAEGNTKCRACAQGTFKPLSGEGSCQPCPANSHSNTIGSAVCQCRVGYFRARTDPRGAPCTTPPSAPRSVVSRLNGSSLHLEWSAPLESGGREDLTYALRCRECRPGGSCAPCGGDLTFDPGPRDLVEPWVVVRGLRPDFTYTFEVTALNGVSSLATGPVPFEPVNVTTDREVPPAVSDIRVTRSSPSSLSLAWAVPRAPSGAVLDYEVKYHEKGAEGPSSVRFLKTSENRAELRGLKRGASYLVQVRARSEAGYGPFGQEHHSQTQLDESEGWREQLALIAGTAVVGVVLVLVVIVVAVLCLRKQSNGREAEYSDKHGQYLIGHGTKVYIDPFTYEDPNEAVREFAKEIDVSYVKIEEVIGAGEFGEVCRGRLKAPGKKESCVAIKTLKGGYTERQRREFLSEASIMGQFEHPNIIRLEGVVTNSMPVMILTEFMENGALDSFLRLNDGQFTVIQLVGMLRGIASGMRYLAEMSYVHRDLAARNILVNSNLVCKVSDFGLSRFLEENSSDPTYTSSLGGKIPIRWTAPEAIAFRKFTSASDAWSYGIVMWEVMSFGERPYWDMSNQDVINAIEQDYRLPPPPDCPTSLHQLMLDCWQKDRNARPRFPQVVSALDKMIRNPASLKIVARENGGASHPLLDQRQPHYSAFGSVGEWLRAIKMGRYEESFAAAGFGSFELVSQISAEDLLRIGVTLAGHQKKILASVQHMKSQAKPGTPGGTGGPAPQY
From the text: as §1

[11] = biological target: 320 wild-type protein kinases (Homo sapiens, UniProt P51617); conditions: singlicate
From the text: as §1

Chain of 320 wild-type protein kinases (Homo sapiens, UniProt P45983) (P45983 whole entry): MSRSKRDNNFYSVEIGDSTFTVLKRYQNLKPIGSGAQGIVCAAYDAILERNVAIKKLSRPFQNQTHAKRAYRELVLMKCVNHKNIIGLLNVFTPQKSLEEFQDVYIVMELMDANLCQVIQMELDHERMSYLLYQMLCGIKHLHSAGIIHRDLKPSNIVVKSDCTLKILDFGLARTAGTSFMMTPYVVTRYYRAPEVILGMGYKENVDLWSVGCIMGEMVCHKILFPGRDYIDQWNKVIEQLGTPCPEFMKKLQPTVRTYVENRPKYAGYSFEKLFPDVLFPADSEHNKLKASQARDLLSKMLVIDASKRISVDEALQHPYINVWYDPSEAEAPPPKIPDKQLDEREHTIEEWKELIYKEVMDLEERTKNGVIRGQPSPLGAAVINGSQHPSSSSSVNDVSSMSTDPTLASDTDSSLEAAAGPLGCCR

SMILES | Residual activity ([1]; JNK1, 1.0E-06 M) | Residual activity ([1]; JNK1, 1.0E-07 M) | Residual activity ([2]; ACV-R1, 1.0E-06 M) | Residual activity ([2]; ACV-R1, 1.0E-07 M) | Residual activity ([3]; EIF2AK2, 1.0E-06 M) | Residual activity ([3]; EIF2AK2, 1.0E-07 M) | Residual activity ([4]; ACK1, 1.0E-06 M) | Residual activity ([4]; ACK1, 1.0E-07 M) | Residual activity, WNK1 ([5]; assay conc. 1.0E-06 M) | Residual activity, WNK1 ([5]; assay conc. 1.0E-07 M) | Residual activity ([6]; NEK4, 1.0E-06 M) | Residual activity ([6]; NEK4, 1.0E-07 M) | Residual activity ([7]; EPHA7, 1.0E-06 M) | Residual activity ([7]; EPHA7, 1.0E-07 M) | Residual activity, YES ([8]; assay conc. 1.0E-06 M) | Residual activity, YES ([8]; assay conc. 1.0E-07 M) | Residual activity ([9]; 1.0E-06 M) | Residual activity ([9]; 1.0E-07 M) | Residual activity ([10]; EPHB4, 1.0E-06 M) | Residual activity ([10]; EPHB4, 1.0E-07 M) | also measured
C#Cc1cc(Nc2ncnc3cc(I)ccc23)ccc1Cl [Compound 41] | 91 % of control | 90 % of control | 86 % of control | 91 % of control | 58 % of control | 72 % of control | 98 % of control | 134 % of control | 70 % of control | 84 % of control | 94 % of control | 100 % of control | 94 % of control | 85 % of control | 83 % of control | 101 % of control | 95 % of control | 100 % of control | 92 % of control | 89 % of control | Residual activity ([11]; IRAK1, 1.0E-06 M): 103 % of control; Residual activity ([11]; IRAK1, 1.0E-07 M): 109 % of control
C#Cc1cc(Nc2ncnc3cc(OC)c(OC)cc23)ccc1Cl [Compound 45] | 94 % of control | 113 % of control | 93 % of control | 98 % of control | 77 % of control | 77 % of control | 63 % of control | 100 % of control | 95 % of control | 93 % of control | 84 % of control | 106 % of control | 58 % of control | 84 % of control | 77 % of control | 100 % of control | 95 % of control | 108 % of control | 82 % of control | 101 % of control | Residual activity ([11]; IRAK1, 1.0E-06 M): 105 % of control; Residual activity ([11]; IRAK1, 1.0E-07 M): 109 % of control
